From patent US8575188B2 (priority 2009, dated 2013)

Key:
[1] = tested on: human melanoma cell line A375; assay: Antiproliferation assay, 72 hrs under air, Alamar Blue; type: cell-based; settings: Homo sapiens, A-375
[2] = tested on: bone marrow progenitor cells; assay: Bone marrow progenitor cell clonogenic assay (CFU-GM), human; settings: Homo sapiens, CFU-GM, read-out: Human CFU-GM (IC50 nM) THLD
Method: (§1) A clonogenic assay was performed using bone marrow progenitor cells derived from the blood of mice and humans.

[3] = as above; settings: human
Method: as §1

[4] = tested on: IGROV1 human ovarian cancer cells; assay: Xenograft model of metastatic ovarian cancer (i.p.), survival; settings: IGROV1 i.p., median survival treated / vehicle times 100; PO, QD × 5/wk, 4 weeks, 20 mg/Kg
Method: One arm was dosed with only vehicle and the results used for the efficacy calculations. […] A xenograft model of metastatic ovarian cancer was set up by the intraperitoneal (i.p) injection of 3×10^6 IGROV1 human ovarian cancer cells in nude mice. Mice were evaluated twice a week for morbidity and mortality. Kaplan-Meier survival curves were plotted.

[5] = tested on: human prostate cancer cell line LNCap; assay: Antiproliferation assay, 72 hrs under air, Alamar Blue; type: cell-based; settings: Homo sapiens, LNCaP
[6] = tested on: human melanoma cell line SKMEL-28; assay: as above; type: cell-based; settings: Homo sapiens, SK-MEL-28
[7] = tested on: bone marrow progenitor cells; assay: Bone marrow progenitor cell clonogenic assay (CFU-GM), mouse; settings: Mus musculus, CFU-GM, read-out: Mouse CFU-GM (IC50 nM) THLD
Method: as §1

[8] = as above; settings: mouse
Method: as §1

[9] = tested on: MRP1 over expressing H69AR line; assay: Efflux pump drug resistance, antiproliferation assay, MRP1 over expressing line; type: cell-based; settings: Homo sapiens, 72 h, air, 3 days, read-out: Air 3d H69ar (MRP1) prol. IC50
Method: (§2) The compounds were screened for cytotoxicity using human non small cell lung cancer cell line H460. […]
(§3) Cellular drug resistance was determined using the antiproliferation assay described above.

[10] = tested on: human melanoma cell line SKMEL2; assay: Antiproliferation assay, 72 hrs under air, Alamar Blue; type: cell-based; settings: Homo sapiens, SK-MEL-2, read-out: SKMEL-2 IC50
[11] = tested on: Messa ovarian carcinoma cell line; assay: Efflux pump drug resistance, antiproliferation assay, parent line; type: cell-based; settings: Homo sapiens, MES-SA, 72 h, air, 3 days; read-out: Air 3d MESSA prol. IC50
Method: […] Cells were treated with test compounds at various concentrations under air for 72 hrs, and then cell viability and proliferation were assessed by Alamar Blue staining.
as §3

pcDNA = assay: as above; type: cell-based; settings: 72 h, air, 3 days; read-out: Air 3d pcDNA prol. IC50
Method: as §2, §3

[12] = tested on: H69 small cell lung cancer line; assay: as above; type: cell-based; settings: 72 h, air, 3 days; read-out: Air 3d H69 prol. IC50
Method: as §2, §3

[13] = Brain penetration, AUC in brain versus AUC plasma; settings: mouse
Method: Certain compounds of the invention were assessed for brain penetration by comparing the AUC for plasma exposure versus the AUC in brain.

[14] = tested on: human melanoma cell line MAMLE-3M; assay: Antiproliferation assay, 72 hrs under air, Alamar Blue; type: cell-based; settings: Homo sapiens
[15] = tested on: human non small cell lung cancer cell line H460; assay: Antiproliferation (cytotoxicity) assay, 72 hrs under air, Alamar Blue; type: cell-based; settings: Homo sapiens, NCI-H460; H460, inhibition of proliferation, 72 hrs under air; read-out: IC50
[16] = tested on: human prostate cancer cell line PC-3; assay: Antiproliferation assay, 72 hrs under air, Alamar Blue; type: cell-based; settings: Homo sapiens, read-out: PC3 IC50
[17] = tested on: mouse melanoma cell line B-16-F10; assay: as above; type: cell-based; settings: B16-F10
human colon cancer HT-29 = assay: Xenograft model, subcutaneous, tumor growth inhibition and body weight loss; settings: for TGI (%): HT29, PO, QD × 5/wk, 2 weeks, 30 mg/Kg; for Max. BWL (%): mouse, in vivo, po, 30 mg/kg
Method: (§4) The first three models were produced by subcutaneous implantation of the appropriate number of cells into the flank of the animals. When tumor size was approximately 150 mm^3, animals were randomized into groups of 10 mice each for dosing. One arm was dosed with only vehicle and the results used for the efficacy calculations. […] TGI=(1−T/C) %. T/C ratio was calculated as T/C=(Tn−Ti)/(Cn−Ci), where Tn is tumor volume in treatment group on Day n, and Ti is the initial tumor volume in the treatment group. Cn is the tumor volume of the vehicle group on the last day of measurement. Ci is the initial tumor volume in the vehicle control group. Day n is the last measurement taken when all the animals in the vehicle group were not yet euthanized. Animals were euthanized when tumor volumes grew larger than 2000 mm^3.

[18] = tested on: human non small cell lung cancer H-460; assay: as above; settings: for TGI (%): H460, PO, QD × 5/wk, 2 weeks; for Max. BWL (%): mouse, in vivo, po
Method: as §4

[19] = tested on: human prostate cancer cell line DU145; assay: Antiproliferation assay, 72 hrs under air, Alamar Blue; type: cell-based; settings: Homo sapiens, DU-145
[20] = In vivo pharmacokinetics, oral gavage; settings: CD, mouse, in vivo, po; for AUC / Cmax: 50 mg/kg
Method: The data normalized to a 50 mg/kg dose are shown below (compounds were dosed at either 25 or 50 mg/kg).

[21] = tested on: human colon cancer cell line HT-29; assay: Antiproliferation assay, 72 hrs under air, Alamar Blue; type: cell-based; settings: Homo sapiens, HT-29, read-out: HT29 IC50
[22] = tested on: BCRP, which over expressed the breast cancer resistance protein; assay: Efflux pump drug resistance, antiproliferation assay, BCRP over expressing line; settings: for IC50: 72 h, read-out: Air 3d BCRP prol. IC50 nM, air, 3 days; for 3d BCRP/pcDNA: ratio of IC50s, BCRP over expressing versus parent line, 3 days
Method: as §2, §3

[23] = tested on: human ovarian cancer cell line IGROV-1; assay: Antiproliferation assay, 72 hrs under air, Alamar Blue; type: cell-based; settings: Homo sapiens, IGROV-1
[24] = tested on: DX5, which over expresses the MDR 1 efflux pump; assay: Efflux pump drug resistance, antiproliferation assay, MDR 1 over expressing line; type: cell-based; settings: MDR1, 72 h, air, 3 days; read-out: Air 3d DX5 prol. IC50
Method: as §2, §3

Compound	IC50 [1] [nM]	IC50 [2] [nM]	IC90 [3] [nM]	T/C [4]	IC50 [5] [nM]	IC50 [6] [nM]	IC50 [7] [nM]	IC90 [8] [nM]	IC50 [9] [nM]	IC50 [10] [nM]	IC50 [11] [nM]	IC50 (pcDNA) [nM]	IC50 [12] [nM]	IC50 [14] [nM]	IC50 [15] [nM]	IC50 [16] [nM]	IC50 [17] [nM]	TGI (%) (human colon cancer HT-29)	Max. BWL (%) (human colon cancer HT-29)	IC50 [19] [nM]	also measured
CC[C@@]1(O)C(=O)OCc2c1c(N)c1n(c2=O)Cc2cc3ccccc3nc2-1 [TH1320]	22	130	1100	204	110	3000	710	4800	91	170	58	7.4	91	776	18	43	950	44.3	3	50	Kp [13]: 1.15; TGI (%) ([18]; 30 mg/Kg): 79.2%; Max. BWL (%) ([18]; 30 mg/kg): 3.8%; half-life [20]: 1.98 h; AUC [20]: 1620 ng·h/mL; Cmax [20]: 547 ng/mL; IC50 [21]: 229 nM; IC50 [22]: 14 nM; 3d BCRP/pcDNA [22]: 1.8919; IC50 [23]: 120 nM; IC50 [24]: 60 nM
CC[C@@]1(O)C(=O)OCc2c1c(N)c1n(c2=O)Cc2c-1nc1ccccc1c2C [TH1339]	3	10	100	280	23	> 10000	560	2200	28	50	8.5	2.3	13	220	1.8	9	690	56.5	3	2.5	TGI (%) ([18]; 15 mg/Kg): 46.1%; Max. BWL (%) ([18]; 15 mg/kg): 0%; AUC [20]: 405 ng·h/mL; Cmax [20]: 378 ng/mL; IC50 [21]: 69 nM; IC50 [22]: 2.1 nM; 3d BCRP/pcDNA [22]: 0.913; IC50 [23]: 10 nM; IC50 [24]: 6.7 nM
